Measured values as given in US20160311812A1, “ADENOSINE A1 AGONISTS AS MEDICAMENTS FOR KIDNEY DISORDERS” (BAYER PHARMA AKTIENGESELLSCHAFT, priority 2013, published 2016).

Tests used:
[1] = system: unilaterally nephrectomized SHR; assay: Functional and structural renal dysfunction in unilaterally nephrectomized spontaneously hypertensive rats; format: in vivo, rat; conditions: Group 4: SNX + 1.0 mg/kg body weight/day p.o., 4 weeks
Source text: (§1) B-4. Effects of Partial A1 Agonists on Renal and Cardiac Function in Unilaterally Nephrectomized and Spontaneously Hypertensive Rats (Example 2 for Chronic Kidney Disorders)
(§2) Unilaterally nephrectomized, spontaneously hypertensive rats (SHR) are an established animal model for investigating the development and progression of hypertensive damage of the glomeruli in the remaining kidney [H. Kinuno et al., “Effects of uninephrectomy on renal structural properties in spontaneously hypertensive rats”, Clin and Exp Pharmacol and Physiol 2005, 32, 173-178]. […] Furthermore, renal excretion of substances usually eliminated in the urine, such as creatinine and urea, is reduced and the electrolyte metabolism is disturbed, the latter being associated with volume retention.
(§3) Procedure: male SHR rats (180-220 g) from Taconic had the left kidney removed in one session (=UNX). Normotensive Wistar Kyoto rats (WKY) from Taconic served as control. The following groups, each with 12 rats per group, were investigated:
(§4) Group 2 UNX+placebo (60 g glycerol+100 g water+969 g PEG-400)
(§5) Group 3 UNX+10 mg/kg body weight/day enalapril (reference therapy, in the drinking water)
(§6) Group 4 SNX+1.0 mg/kg body weight/day partial A1 EXAMPLE 1, p.o. in placebo
(§7) Group 5 SNX+3.0 mg/kg body weight/day partial A1 EXAMPLE 4, p.o. in placebo
(§8) Three weeks after unilateral nephrectomy, the SHRs developed manifest hypertensive damage of the glomeruli in the remaining kidney, from this time point on the rats were treated for a further four weeks corresponding to the groups given above. At the end of the protocol, the following samples were obtained/measurements were carried out: eight-hour urine collection, invasive measurement of systolic and diastolic left ventricular function, and TaqMan analyses of renal injury markers in the renal cortex.

[2] = system: unilaterally nephrectomized SHR; assay: Functional and structural myocardial dysfunction in unilaterally nephrectomized spontaneously hypertensive rats; format: in vivo, rat; conditions: Group 4: SNX + 1.0 mg/kg body weight/day p.o., 4 weeks
Source text: as §1, §2, §3, §4, §5, §6, §7, §8

[3] = system: 5/6 nephrectomy rat model; assay: Functional and structural renal dysfunction in 5/6 nephrectomized rats; format: in vivo; conditions: 4 weeks; for End organ injury marker concentration in the urine: hFABP / End organ injury marker concentration in the urine: hFABP per creatinine: ELISA; for Kidney injury marker-1 [gene expression] / Lipocalin-2 [gene expression] / Osteopontin [gene expression]: renal cortex
Source text: B-3. Effects of Partial A1 Agonists on Renal and Cardiac Function in 5/6 Nephrectomized Rats (Example 1 for Chronic Kidney Disorder)
5/6 nephrectomy in the rat, in which one kidney and the renal cortex of the second kidney are surgically removed (=5/6 of functional kidney tissue) is an established animal model for interstitial renal fibrosis and chronic renal insufficiency [C. Fleck et al., “Suitability of 5/6 nephrectomy (5/6NX) for the induction of interstitial renal fibrosis in rats Influence of sex, strain, and surgical procedure”, Exp. Tox. Pathology 2006, 57, 195-205]. The model is characterized by progressive proteinuria, disturbed tubular electrolyte transport, a reduced glomerular filtration rate, an increase in urinary output, interstitial fibrosis with reactively occurring lymphocyte infiltrates, glomerulosclerosis and tubular atrophy. The level of proteinuria is a specific index of the renal function prognosis: the higher the proteinuria, the greater is the functional and structural kidney injury and therefore progression of chronic to terminal renal insufficiency (uraemia). During monitoring of therapy, e.g. with the ACE inhibitor enalapril, the course of proteinuria provides information on the functional and structural response to the therapy and thus on the renal function prognosis. As a result of the renal insufficiency and accumulation of umemic toxins, in the animals there is secondary development of a umemic cardiomyopathy, depending on the severity associated with hypertension, increased heart rate, reduced parasympathetic tone, myocardial, left-ventricular hypertrophy and fibrosis, diastolic dysfunction and an increased prevalence of arrhythmias [Svilerova et al. 2010 Physiol Res 59: S81-S88).
Procedure: male Wistar:WU rats (210-250 g) from Charles River had the left kidney and the renal cortex of the right kidney removed (=SNX) in one session; sham-operated rats served as control group (=SOP). The following groups, each with 12 rats per group, were investigated:
Group 2 SNX+placebo (60 g glycerol+100 g water+969 g PEG-400)
Group 3 SNX+10 mg/kg body weight/day enalapril (reference therapy, in the drinking water)
Group 4 SNX+0.1 mg/kg body weight/day partial A1 agonist EXAMPLE 1, p.o. in placebo
Group 5 SNX+1.0 mg/kg body weight/day partial A1 agonist EXAMPLE 1, p.o. in placebo
Group 6 SNX+0.3 mg/kg body weight/day partial A1 agonist EXAMPLE 4, p.o. in placebo
Group 7 SNX+3.0 mg/kg body weight/day partial A1 agonist EXAMPLE 4, p.o. in placebo
Three weeks after 5/6 nephrectomy, the rats developed manifest proteinuria, from this time point the rats were treated for a further four weeks corresponding to the groups stated above. At the end of the protocol, the following samples were obtained/measurements were carried out: eight-hour urine collection with determination of the concentration of hFABP in the urine by ELISA (Rat/Mouse h-FABP ELISA, Hycultbiotech), as marker for end organ damage, invasive measurement of the isoprenaline-induced increase (cumulatively 12.5 ng-250 ng/kg isoprenaline, i.v.) in systolic and diastolic left ventricular function, and TaqMan analyses of renal injury markers in the renal cortex.

[4] = Group 4: SNX + 0.1 mg/kg body weight/day p.o.
[5] = Group 5: SNX + 1.0 mg/kg body weight/day p.o.

Compound: N#Cc1c(N)nc(SCc2csc(-c3ccc(Cl)cc3)n2)c(C#N)c1-c1ccc(OCCO)cc1 [EXAMPLE 1, 2-Amino-6-({[2-(4-chlorophenyl)-1,3-thiazol-4-yl]methyl}sulphanyl)-4-[4-(2-hydroxyethoxy)phenyl]pyridine-3,5-dicarbonitrile]
- P-creatinine [1]: 62 ± 1.1 mmol/L
- P-urea [1]: 9.3 ± 0.4 mmol/L
- U-creatinine [1]: 2.1 ± 0.4 μmol/ml urine/kg BW/h
- U-protein [1]: 0.53 ± 0.10 μmol/ml urine/kg BW/h
- U-sodium [1]: 37 ± 9 μmol/ml urine/kg BW/h
- U-urea [1]: 186 ± 31 μmol/ml urine/kg BW/h
- Urine volume [1]: 2.1 ± 0.2 ml/kg BW/h
- CYR61 [gene expression] ([1]; renal cortex): 395 ± 47 rel. expression
- Lipocalin-2 [gene expression] ([1]; renal cortex): 160 ± 24 rel. expression
- Diastolic blood pressure [2]: 112 ± 6 mmHg
- Heart rate [2]: 295 ± 11 beats/min
- Left ventricular hypertrophy (LVS/RV ratio, mg/mg) [2]: 4.3 ± 0.2 mg/mg
- Left-ventricular end-diastolic pressure [2]: 8.5 ± 1.3 mmHg
- Left-ventricular pressure [2]: 169 ± 8 mmHg
- Pressure decrease over time [2]: −10181 ± 523 mmHg/s
- Pressure increase over time [2]: 7943 ± 512 mmHg/s
- Systolic blood pressure [2]: 171 ± 8 mmHg
- P-creatinine [3, 4]: 66 ± 1 µmol/L
- P-urea [3, 4]: 11 ± 0.5 mmol/L
- U-creatinine [3, 4]: 2.4 ± 0.3 μmol/ml urine/kg BW/h
- U-protein [3, 4]: 1.07 ± 0.28 μmol/ml urine/kg BW/h
- U-sodium [3, 4]: 18 ± 3 μmol/ml urine/kg BW/h
- U-urea [3, 4]: 260 ± 31 μmol/ml urine/kg BW/h
- Urine volume [3, 4]: 2.2 ± 0.1 ml/kg BW/h
- End organ injury marker concentration in the urine: hFABP [3, 4]: 1088 ± 159 pg hFABP/ml urine/h
- End organ injury marker concentration in the urine: hFABP per creatinine [3, 4]: 194 ± 36 pg hFABP/μmol creatinine
- Kidney injury marker-1 [gene expression] [3, 4]: 60 ± 17 rel. expression
- Lipocalin-2 [gene expression] [3, 4]: 307 ± 51 rel. expression
- Osteopontin [gene expression] [3, 4]: 6008 ± 1209 rel. expression
- P-creatinine [3, 5]: 63 ± 1 µmol/L
- P-urea [3, 5]: 11 ± 0.3 mmol/L
- U-creatinine [3, 5]: 2.3 ± 0.3 μmol/ml urine/kg BW/h
- U-protein [3, 5]: 0.75 ± 0.14 μmol/ml urine/kg BW/h
- U-sodium [3, 5]: 31 ± 3 μmol/ml urine/kg BW/h
- U-urea [3, 5]: 264 ± 35 μmol/ml urine/kg BW/h
- Urine volume [3, 5]: 2.0 ± 0.2 ml/kg BW/h
- End organ injury marker concentration in the urine: hFABP [3, 5]: 1136 ± 229 pg hFABP/ml urine/h
- End organ injury marker concentration in the urine: hFABP per creatinine [3, 5]: 175 ± 39 pg hFABP/μmol creatinine
- Kidney injury marker-1 [gene expression] [3, 5]: 62 ± 13 rel. expression
- Lipocalin-2 [gene expression] [3, 5]: 313 ± 65 rel. expression
- Osteopontin [gene expression] [3, 5]: 5476 ± 1131 rel. expression
